# Species on record: Rattus norvegicus
# Test: Open TG-GATES - Regimen: Single
# Format: toxicity, organism-based, Sprague-Dawley
# Set-up: regimen Single, gender Male, age 6 weeks
# Details: in vivo, po, route gavage; for TP / gamma-GTP / ALP / ALT / AST / BUN / CRE / DBIL / GLC / K / LDH / Na / PL / RALB / TBIL / TC / TG: tissue Plasma; for APTT / Bas / Eos / Fbg / Hb / Ht / Lym / MCHC / MCV / Mono / PT / Plat / RBC / Ret / WBC: tissue Blood; for KIDNEY_L / KIDNEY_R / KIDNEY_TOTAL: tissue Kidney; for LIVER: tissue Liver
# [1] = 0 mg/kg, 24 h, dose level Control
# [2] = 600 mg/kg, 24 h, dose level Low
compound,measurement,setting,value
O=C1NC(=O)C(c2ccccc2)(c2ccccc2)N1 [PHENYTOIN],TP,[1],5.6 g/dL
same,gamma-GTP,[1],1 IU/L
same,TERMINAL_BW,"600 mg/kg, 3 h, dose level Low",210.6 g
same,APTT,"600 mg/kg, 3 h, dose level Low",16.8 s
same,Bas,"600 mg/kg, 3 h, dose level Low",0.2%
same,Eos,"600 mg/kg, 3 h, dose level Low",0.8%
same,Fbg,"600 mg/kg, 3 h, dose level Low",264.8 mg/dL
same,Hb,"600 mg/kg, 3 h, dose level Low",13.1 g/dL
same,Ht,"600 mg/kg, 3 h, dose level Low",39.2%
same,Lym,"600 mg/kg, 3 h, dose level Low",79%
same,MCHC,"600 mg/kg, 3 h, dose level Low",33.5%
same,MCV,"600 mg/kg, 3 h, dose level Low",62.3 fL
same,Mono,"600 mg/kg, 3 h, dose level Low",2.4%
same,PT,"600 mg/kg, 3 h, dose level Low",14 s
same,Plat,"600 mg/kg, 3 h, dose level Low",116 x10_4/uL
same,RBC,"600 mg/kg, 3 h, dose level Low",629.4 x10_4/ul
same,Ret,"600 mg/kg, 3 h, dose level Low",8%
same,KIDNEY_L,"600 mg/kg, 3 h, dose level Low",0.9 g
same,KIDNEY_R,"600 mg/kg, 3 h, dose level Low",1 g
same,KIDNEY_TOTAL,"600 mg/kg, 3 h, dose level Low",1.9 g
same,LIVER,"600 mg/kg, 3 h, dose level Low",8.8 g
same,ALP,"600 mg/kg, 3 h, dose level Low",1512 IU/L
same,ALT,"600 mg/kg, 3 h, dose level Low",36.4 IU/L
same,AST,"600 mg/kg, 3 h, dose level Low",78.6 IU/L
same,BUN,"600 mg/kg, 3 h, dose level Low",10 mg/dL
same,CRE,"600 mg/kg, 3 h, dose level Low",0.2 mg/dL
same,DBIL,"600 mg/kg, 3 h, dose level Low",0.012 mg/dL
same,GLC,"600 mg/kg, 3 h, dose level Low",186.6 mg/dL
same,K,"600 mg/kg, 3 h, dose level Low",3.9 meq/L
same,LDH,"600 mg/kg, 3 h, dose level Low",113.2 IU/L
same,Na,"600 mg/kg, 3 h, dose level Low",141.8 meq/L
same,PL,"600 mg/kg, 3 h, dose level Low",143.4 mg/dL
same,RALB,"600 mg/kg, 3 h, dose level Low",2.5 g/dL
same,TBIL,"600 mg/kg, 3 h, dose level Low",0.052 mg/dL
same,TC,"600 mg/kg, 3 h, dose level Low",82 mg/dL
same,TG,"600 mg/kg, 3 h, dose level Low",36.2 mg/dL
same,TP,"600 mg/kg, 3 h, dose level Low",5.4 g/dL
same,gamma-GTP,"600 mg/kg, 3 h, dose level Low",1.2 IU/L
same,TERMINAL_BW,"600 mg/kg, 6 h, dose level Low",208.2 g
same,APTT,"600 mg/kg, 6 h, dose level Low",18.6 s
same,Bas,"600 mg/kg, 6 h, dose level Low",0.4%
same,Eos,"600 mg/kg, 6 h, dose level Low",0.8%
same,Fbg,"600 mg/kg, 6 h, dose level Low",274.8 mg/dL
same,Hb,"600 mg/kg, 6 h, dose level Low",13 g/dL
same,Ht,"600 mg/kg, 6 h, dose level Low",38.2%
same,Lym,"600 mg/kg, 6 h, dose level Low",77.6%
same,MCHC,"600 mg/kg, 6 h, dose level Low",33.9%
same,MCV,"600 mg/kg, 6 h, dose level Low",61 fL
same,Mono,"600 mg/kg, 6 h, dose level Low",2.6%
same,PT,"600 mg/kg, 6 h, dose level Low",14.3 s
same,RBC,"600 mg/kg, 6 h, dose level Low",626.4 x10_4/ul
same,Ret,"600 mg/kg, 6 h, dose level Low",7.9%
same,WBC,"600 mg/kg, 6 h, dose level Low",89.4 x10_2/uL
same,KIDNEY_L,"600 mg/kg, 6 h, dose level Low",1 g
same,KIDNEY_R,"600 mg/kg, 6 h, dose level Low",0.9 g
same,KIDNEY_TOTAL,"600 mg/kg, 6 h, dose level Low",1.9 g
same,LIVER,"600 mg/kg, 6 h, dose level Low",8.7 g
same,ALP,"600 mg/kg, 6 h, dose level Low",1510.8 IU/L
same,ALT,"600 mg/kg, 6 h, dose level Low",30.8 IU/L
same,AST,"600 mg/kg, 6 h, dose level Low",71.8 IU/L
same,BUN,"600 mg/kg, 6 h, dose level Low",8.6 mg/dL
same,CRE,"600 mg/kg, 6 h, dose level Low",0.2 mg/dL
same,DBIL,"600 mg/kg, 6 h, dose level Low",0.01 mg/dL
same,GLC,"600 mg/kg, 6 h, dose level Low",181.8 mg/dL
same,K,"600 mg/kg, 6 h, dose level Low",4.2 meq/L
same,LDH,"600 mg/kg, 6 h, dose level Low",89 IU/L
same,Na,"600 mg/kg, 6 h, dose level Low",142.8 meq/L
same,PL,"600 mg/kg, 6 h, dose level Low",135.6 mg/dL
same,RALB,"600 mg/kg, 6 h, dose level Low",2.5 g/dL
same,TBIL,"600 mg/kg, 6 h, dose level Low",0.052 mg/dL
same,TC,"600 mg/kg, 6 h, dose level Low",74.8 mg/dL
same,TG,"600 mg/kg, 6 h, dose level Low",26 mg/dL
same,TP,"600 mg/kg, 6 h, dose level Low",5.3 g/dL
same,gamma-GTP,"600 mg/kg, 6 h, dose level Low",1.4 IU/L
same,TERMINAL_BW,"600 mg/kg, 9 h, dose level Low",206.7 g
same,APTT,"600 mg/kg, 9 h, dose level Low",16 s
same,Bas,"600 mg/kg, 9 h, dose level Low",0.2%
same,Eos,"600 mg/kg, 9 h, dose level Low",1%
same,Fbg,"600 mg/kg, 9 h, dose level Low",288.8 mg/dL
same,Hb,"600 mg/kg, 9 h, dose level Low",13.3 g/dL
same,Ht,"600 mg/kg, 9 h, dose level Low",39.5%
same,Lym,"600 mg/kg, 9 h, dose level Low",73.6%
same,MCHC,"600 mg/kg, 9 h, dose level Low",33.7%
same,MCV,"600 mg/kg, 9 h, dose level Low",60.6 fL
same,Mono,"600 mg/kg, 9 h, dose level Low",2.4%
same,PT,"600 mg/kg, 9 h, dose level Low",14.3 s
same,Plat,"600 mg/kg, 9 h, dose level Low",109.6 x10_4/uL
same,RBC,"600 mg/kg, 9 h, dose level Low",653.4 x10_4/ul
same,Ret,"600 mg/kg, 9 h, dose level Low",7.3%
same,WBC,"600 mg/kg, 9 h, dose level Low",74.9 x10_2/uL
same,KIDNEY_L,"600 mg/kg, 9 h, dose level Low",0.9 g
same,KIDNEY_R,"600 mg/kg, 9 h, dose level Low",0.9 g
same,KIDNEY_TOTAL,"600 mg/kg, 9 h, dose level Low",1.8 g
same,LIVER,"600 mg/kg, 9 h, dose level Low",7.7 g
same,ALP,"600 mg/kg, 9 h, dose level Low",1491.4 IU/L
same,ALT,"600 mg/kg, 9 h, dose level Low",29.6 IU/L
same,AST,"600 mg/kg, 9 h, dose level Low",72.4 IU/L
same,BUN,"600 mg/kg, 9 h, dose level Low",8.2 mg/dL
same,CRE,"600 mg/kg, 9 h, dose level Low",0.2 mg/dL
same,DBIL,"600 mg/kg, 9 h, dose level Low",0.016 mg/dL
same,GLC,"600 mg/kg, 9 h, dose level Low",186 mg/dL
same,K,"600 mg/kg, 9 h, dose level Low",4 meq/L
same,LDH,"600 mg/kg, 9 h, dose level Low",80.8 IU/L
same,Na,"600 mg/kg, 9 h, dose level Low",141.2 meq/L
same,PL,"600 mg/kg, 9 h, dose level Low",125.8 mg/dL
same,RALB,"600 mg/kg, 9 h, dose level Low",2.5 g/dL
same,TBIL,"600 mg/kg, 9 h, dose level Low",0.064 mg/dL
same,TC,"600 mg/kg, 9 h, dose level Low",69.6 mg/dL
same,TG,"600 mg/kg, 9 h, dose level Low",18 mg/dL
same,TP,"600 mg/kg, 9 h, dose level Low",5.4 g/dL
same,gamma-GTP,"600 mg/kg, 9 h, dose level Low",1 IU/L
same,TERMINAL_BW,[2],217.3 g
same,APTT,[2],16.9 s
same,Bas,[2],0.2%
same,Eos,[2],1.2%
same,Fbg,[2],286 mg/dL
same,Hb,[2],13.7 g/dL
same,Ht,[2],40.1%
same,Lym,[2],78.4%
same,MCHC,[2],34.2%
same,MCV,[2],62.9 fL
same,Mono,[2],2.4%
same,PT,[2],14.5 s
same,Plat,[2],120.7 x10_4/uL
same,RBC,[2],637.4 x10_4/ul
same,Ret,[2],7.3%
same,WBC,[2],101.8 x10_2/uL
same,KIDNEY_L,[2],1 g
same,KIDNEY_R,[2],1 g
same,KIDNEY_TOTAL,[2],1.9 g
same,LIVER,[2],9.7 g
same,ALP,[2],1621 IU/L
same,ALT,[2],34.6 IU/L
same,AST,[2],67.6 IU/L
same,BUN,[2],14 mg/dL
same,CRE,[2],0.2 mg/dL
same,DBIL,[2],0.022 mg/dL
same,GLC,[2],177.6 mg/dL
same,K,[2],4.4 meq/L
same,LDH,[2],123.6 IU/L
same,Na,[2],141.6 meq/L
same,PL,[2],143 mg/dL
same,RALB,[2],2.6 g/dL
same,TBIL,[2],0.04 mg/dL
same,TC,[2],75.4 mg/dL
same,TG,[2],95.8 mg/dL
same,TP,[2],5.6 g/dL

# From ChEMBL document CHEMBL3885861, “Open TG-GATES”
